Data set [1] deals with T1, Bromodomain-containing protein 4 (Homo sapiens, UniProt O60885). In words: Binding affinity to BRD4 containing BD2 bromodomains (unknown origin) by TR-FRET assay. Background: In TR-FRET formats the signal depends on donor and acceptor labels being close together.
Data set [2] in a line: Distribution coefficient, log D of the compound at pH 7.4 by chromatographic method. Format: physicochemical. The settings on record: octanol/water.
For data set [3], the target named is T2, Bromodomain testis-specific protein (Homo sapiens, UniProt Q58F21). Kind of data set: Binding affinity to BRDt containing BD2 bromodomains (unknown origin) by TR-FRET assay.
Data set [4] concerns the target T3, Bromodomain-containing protein 3 (Homo sapiens, UniProt Q15059). In words: Binding affinity to BRD3 containing BD1 bromodomains (unknown origin) by TR-FRET assay.
Data set [5] in a line: physchem. The settings on record: phosphate buffered saline, pH 7.4, solubility.
Description: Solubility of the compound in phosphate buffered saline at pH 7.4 after 1 hr by CLND method
In data set [6] the target is T1, Bromodomain-containing protein 4. In words: Binding affinity to BRD4 containing BD1 bromodomains (unknown origin) by TR-FRET assay.
The target in data set [7] is T3, Bromodomain-containing protein 3. In words: Binding affinity to BRD3 containing BD2 bromodomains (unknown origin) by TR-FRET assay.
In data set [8] the target is Bromodomain-containing protein 4 (Homo sapiens, UniProt O60885, Y390A).
The nature of data set [9]: Permeability across phosphatidyl choline membrane at pH 7.4 after 3 hrs by HPLC with UV detection method. Format: ADME. To be noted: not told, read-out: permeability.
For data set [10], the target named is T4, Bromodomain-containing protein 9 (Homo sapiens, UniProt Q9H8M2).
T4 sequence (Q9H8M2 whole entry): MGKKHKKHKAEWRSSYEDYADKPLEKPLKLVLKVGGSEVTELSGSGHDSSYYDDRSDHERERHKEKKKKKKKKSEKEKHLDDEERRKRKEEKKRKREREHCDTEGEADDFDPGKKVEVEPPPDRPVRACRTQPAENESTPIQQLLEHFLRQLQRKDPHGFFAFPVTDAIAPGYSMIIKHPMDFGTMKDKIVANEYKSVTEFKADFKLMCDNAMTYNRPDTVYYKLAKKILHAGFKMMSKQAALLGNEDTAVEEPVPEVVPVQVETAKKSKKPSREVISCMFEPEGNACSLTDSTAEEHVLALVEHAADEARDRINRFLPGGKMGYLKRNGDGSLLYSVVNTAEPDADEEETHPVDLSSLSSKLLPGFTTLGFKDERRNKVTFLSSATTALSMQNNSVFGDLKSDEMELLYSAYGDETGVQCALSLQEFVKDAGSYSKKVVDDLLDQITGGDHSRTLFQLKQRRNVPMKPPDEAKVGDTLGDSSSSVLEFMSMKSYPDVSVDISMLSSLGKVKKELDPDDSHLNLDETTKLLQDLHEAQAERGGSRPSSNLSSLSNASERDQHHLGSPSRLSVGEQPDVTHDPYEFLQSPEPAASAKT
Kind of data set: Binding affinity to BRD9 in human HUT78 cells incubated for 45 mins by mass spectrometry based bromosphere chemoproteomic assay. Format: cell-based.

Data set [11] has as its target Protein polybromo-1 (Homo sapiens, UniProt Q86U86). In words: Binding affinity to PBRM1 in human HUT78 cells incubated for 45 mins by mass spectrometry based bromosphere chemoproteomic assay. The format is cell-based.
For data set [12], the target named is Nucleosome-remodeling factor subunit BPTF (Homo sapiens, UniProt Q12830). Kind of data set: Binding affinity to BPTF in human HUT78 cells incubated for 45 mins by mass spectrometry based bromosphere chemoproteomic assay. The format is cell-based.
Data set [13] has as its target Bromodomain-containing protein 2 (Homo sapiens, UniProt P25440). In words: Binding affinity to BRD2 in human HUT78 cells incubated for 45 mins by mass spectrometry based bromosphere chemoproteomic assay. The format is cell-based.
For data set [14], the target named is Transcription initiation factor TFIID subunit 1 (Homo sapiens, UniProt P21675). In words: Binding affinity to TAF1 in human HUT78 cells incubated for 45 mins by mass spectrometry based bromosphere chemoproteomic assay. Format: cell-based.
Data set [15] concerns the target Bromodomain adjacent to zinc finger domain protein 2A (Homo sapiens, UniProt Q9UIF9). Kind of data set: Binding affinity to BAZ2A in human HUT78 cells incubated for 45 mins by mass spectrometry based bromosphere chemoproteomic assay. Format: cell-based.
Data set [16] has as its target Histone acetyltransferase KAT2A (Homo sapiens, UniProt Q92830). Kind of data set: Binding affinity to KAT2A in human HUT78 cells incubated for 45 mins by mass spectrometry based bromosphere chemoproteomic assay. Format: cell-based.
The target of data set [17] is T3, Bromodomain-containing protein 3. In words: Binding affinity to BRD3 in human HUT78 cells incubated for 45 mins by mass spectrometry based bromosphere chemoproteomic assay. Format: cell-based.
Data set [18] has as its target T5, Peregrin (Homo sapiens, UniProt P55201).
T5 sequence (P55201 whole entry): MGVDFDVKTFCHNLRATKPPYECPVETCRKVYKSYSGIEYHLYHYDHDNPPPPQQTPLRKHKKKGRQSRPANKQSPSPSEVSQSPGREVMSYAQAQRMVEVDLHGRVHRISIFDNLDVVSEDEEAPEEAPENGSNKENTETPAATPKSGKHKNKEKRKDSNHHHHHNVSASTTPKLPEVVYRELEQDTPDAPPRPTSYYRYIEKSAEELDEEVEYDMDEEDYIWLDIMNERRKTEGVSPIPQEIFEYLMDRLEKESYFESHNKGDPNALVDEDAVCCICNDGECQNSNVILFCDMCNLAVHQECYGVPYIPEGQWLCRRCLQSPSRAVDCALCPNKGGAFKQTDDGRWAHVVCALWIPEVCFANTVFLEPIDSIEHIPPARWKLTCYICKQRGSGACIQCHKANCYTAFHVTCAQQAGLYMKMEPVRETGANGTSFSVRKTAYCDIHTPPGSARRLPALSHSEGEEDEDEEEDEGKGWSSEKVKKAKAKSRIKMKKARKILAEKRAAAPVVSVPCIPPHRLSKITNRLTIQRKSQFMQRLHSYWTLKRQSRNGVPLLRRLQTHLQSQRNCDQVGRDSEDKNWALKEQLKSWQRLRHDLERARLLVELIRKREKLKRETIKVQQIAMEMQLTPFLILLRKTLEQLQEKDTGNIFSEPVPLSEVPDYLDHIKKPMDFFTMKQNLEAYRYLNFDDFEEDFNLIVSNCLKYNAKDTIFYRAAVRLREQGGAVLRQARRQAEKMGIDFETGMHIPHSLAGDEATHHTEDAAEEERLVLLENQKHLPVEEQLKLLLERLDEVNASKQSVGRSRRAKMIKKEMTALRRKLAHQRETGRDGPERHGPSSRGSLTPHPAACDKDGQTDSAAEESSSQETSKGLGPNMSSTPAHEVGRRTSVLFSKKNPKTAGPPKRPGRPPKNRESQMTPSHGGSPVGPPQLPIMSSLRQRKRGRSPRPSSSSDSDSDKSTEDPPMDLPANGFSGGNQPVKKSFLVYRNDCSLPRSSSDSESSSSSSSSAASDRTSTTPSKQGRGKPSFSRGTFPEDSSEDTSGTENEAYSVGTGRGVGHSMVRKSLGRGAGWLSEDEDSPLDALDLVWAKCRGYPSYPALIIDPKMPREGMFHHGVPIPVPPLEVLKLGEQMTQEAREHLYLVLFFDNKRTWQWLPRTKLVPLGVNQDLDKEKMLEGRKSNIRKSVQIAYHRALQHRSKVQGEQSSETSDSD
In words: Binding affinity to BRPF1 in human HUT78 cells incubated for 45 mins by mass spectrometry based bromosphere chemoproteomic assay. The format is cell-based.

Data set [19] deals with Bromodomain-containing protein 7 (Homo sapiens, UniProt Q9NPI1). In words: Binding affinity to BRD7 in human HUT78 cells incubated for 45 mins by mass spectrometry based bromosphere chemoproteomic assay. The format is cell-based.
Data set [20] deals with Histone acetyltransferase KAT2B (Homo sapiens, UniProt Q92831). In words: Binding affinity to KAT2B in human HUT78 cells incubated for 45 mins by mass spectrometry based bromosphere chemoproteomic assay. The format is cell-based.
Data set [21] addresses Tyrosine-protein kinase BAZ1B (Homo sapiens, UniProt Q9UIG0). In words: Binding affinity to BAZ1B in human HUT78 cells incubated for 45 mins by mass spectrometry based bromosphere chemoproteomic assay. The format is cell-based.
In data set [22] the target is T2, Bromodomain testis-specific protein. Kind of data set: Binding affinity to BRDT in human HUT78 cells incubated for 45 mins by mass spectrometry based bromosphere chemoproteomic assay. The format is cell-based.

Converted amounts (≈) assume the structure as drawn.

T3 sequence (Q15059 whole entry): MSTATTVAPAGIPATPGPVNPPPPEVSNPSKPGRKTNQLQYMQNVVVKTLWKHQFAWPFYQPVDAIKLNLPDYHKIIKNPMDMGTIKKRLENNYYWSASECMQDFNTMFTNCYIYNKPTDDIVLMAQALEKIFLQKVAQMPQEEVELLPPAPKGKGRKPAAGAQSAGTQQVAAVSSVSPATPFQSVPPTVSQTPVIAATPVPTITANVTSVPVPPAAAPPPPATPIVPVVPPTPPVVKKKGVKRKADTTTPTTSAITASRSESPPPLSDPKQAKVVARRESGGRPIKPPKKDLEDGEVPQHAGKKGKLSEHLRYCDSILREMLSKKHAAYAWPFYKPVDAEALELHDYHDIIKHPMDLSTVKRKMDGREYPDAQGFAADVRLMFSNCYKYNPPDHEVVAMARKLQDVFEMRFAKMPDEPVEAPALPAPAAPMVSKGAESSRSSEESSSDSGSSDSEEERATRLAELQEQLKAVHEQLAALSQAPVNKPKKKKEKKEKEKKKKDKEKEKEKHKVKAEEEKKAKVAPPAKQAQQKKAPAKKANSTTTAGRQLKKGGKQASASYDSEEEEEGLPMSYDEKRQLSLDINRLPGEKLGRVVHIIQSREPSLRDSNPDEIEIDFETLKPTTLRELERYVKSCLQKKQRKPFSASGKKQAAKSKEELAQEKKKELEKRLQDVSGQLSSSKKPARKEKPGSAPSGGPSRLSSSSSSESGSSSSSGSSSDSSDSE
Chain of Protein polybromo-1 (Q86U86 whole entry): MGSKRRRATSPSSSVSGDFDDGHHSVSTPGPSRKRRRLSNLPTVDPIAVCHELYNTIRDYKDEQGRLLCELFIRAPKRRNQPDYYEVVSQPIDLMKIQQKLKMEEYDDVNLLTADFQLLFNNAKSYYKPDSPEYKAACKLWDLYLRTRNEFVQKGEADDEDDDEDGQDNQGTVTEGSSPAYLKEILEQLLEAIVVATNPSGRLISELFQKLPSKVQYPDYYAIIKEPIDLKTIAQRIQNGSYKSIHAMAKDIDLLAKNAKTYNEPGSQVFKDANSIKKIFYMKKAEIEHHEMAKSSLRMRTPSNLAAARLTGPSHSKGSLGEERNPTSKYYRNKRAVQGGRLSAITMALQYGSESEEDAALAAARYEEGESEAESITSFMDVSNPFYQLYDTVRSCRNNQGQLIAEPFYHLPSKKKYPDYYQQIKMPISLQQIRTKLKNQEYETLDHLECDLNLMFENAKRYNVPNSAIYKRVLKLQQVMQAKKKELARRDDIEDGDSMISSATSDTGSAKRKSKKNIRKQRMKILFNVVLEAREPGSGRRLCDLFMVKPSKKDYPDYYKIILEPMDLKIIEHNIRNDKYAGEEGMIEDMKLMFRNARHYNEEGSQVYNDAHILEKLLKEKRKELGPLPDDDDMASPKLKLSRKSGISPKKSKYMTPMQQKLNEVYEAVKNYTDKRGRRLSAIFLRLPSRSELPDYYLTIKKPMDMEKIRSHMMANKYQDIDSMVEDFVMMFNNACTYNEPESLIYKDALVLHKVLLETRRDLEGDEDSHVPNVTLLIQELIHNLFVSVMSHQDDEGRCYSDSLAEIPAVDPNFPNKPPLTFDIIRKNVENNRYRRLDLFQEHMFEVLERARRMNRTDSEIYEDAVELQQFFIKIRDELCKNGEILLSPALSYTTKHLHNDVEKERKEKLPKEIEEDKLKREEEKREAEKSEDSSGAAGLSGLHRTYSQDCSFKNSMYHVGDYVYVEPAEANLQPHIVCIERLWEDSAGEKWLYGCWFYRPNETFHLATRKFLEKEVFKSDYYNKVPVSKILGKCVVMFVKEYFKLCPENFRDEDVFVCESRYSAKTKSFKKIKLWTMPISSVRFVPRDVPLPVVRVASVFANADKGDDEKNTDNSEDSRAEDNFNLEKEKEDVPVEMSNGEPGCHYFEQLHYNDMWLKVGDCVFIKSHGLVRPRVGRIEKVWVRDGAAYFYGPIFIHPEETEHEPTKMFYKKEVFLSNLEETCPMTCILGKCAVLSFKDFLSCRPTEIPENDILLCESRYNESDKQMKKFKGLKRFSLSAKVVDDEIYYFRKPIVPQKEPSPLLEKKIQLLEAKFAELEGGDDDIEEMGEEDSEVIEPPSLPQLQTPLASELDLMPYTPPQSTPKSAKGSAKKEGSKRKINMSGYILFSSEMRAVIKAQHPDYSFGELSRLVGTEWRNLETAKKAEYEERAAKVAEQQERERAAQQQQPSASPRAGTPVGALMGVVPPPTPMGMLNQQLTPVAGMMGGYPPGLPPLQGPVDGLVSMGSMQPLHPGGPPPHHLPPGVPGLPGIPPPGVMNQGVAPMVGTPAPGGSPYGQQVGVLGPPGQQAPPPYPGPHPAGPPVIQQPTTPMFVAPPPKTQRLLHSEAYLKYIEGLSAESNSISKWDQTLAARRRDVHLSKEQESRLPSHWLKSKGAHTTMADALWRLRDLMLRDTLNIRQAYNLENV
Chain of Histone acetyltransferase KAT2A (Q92830 whole entry): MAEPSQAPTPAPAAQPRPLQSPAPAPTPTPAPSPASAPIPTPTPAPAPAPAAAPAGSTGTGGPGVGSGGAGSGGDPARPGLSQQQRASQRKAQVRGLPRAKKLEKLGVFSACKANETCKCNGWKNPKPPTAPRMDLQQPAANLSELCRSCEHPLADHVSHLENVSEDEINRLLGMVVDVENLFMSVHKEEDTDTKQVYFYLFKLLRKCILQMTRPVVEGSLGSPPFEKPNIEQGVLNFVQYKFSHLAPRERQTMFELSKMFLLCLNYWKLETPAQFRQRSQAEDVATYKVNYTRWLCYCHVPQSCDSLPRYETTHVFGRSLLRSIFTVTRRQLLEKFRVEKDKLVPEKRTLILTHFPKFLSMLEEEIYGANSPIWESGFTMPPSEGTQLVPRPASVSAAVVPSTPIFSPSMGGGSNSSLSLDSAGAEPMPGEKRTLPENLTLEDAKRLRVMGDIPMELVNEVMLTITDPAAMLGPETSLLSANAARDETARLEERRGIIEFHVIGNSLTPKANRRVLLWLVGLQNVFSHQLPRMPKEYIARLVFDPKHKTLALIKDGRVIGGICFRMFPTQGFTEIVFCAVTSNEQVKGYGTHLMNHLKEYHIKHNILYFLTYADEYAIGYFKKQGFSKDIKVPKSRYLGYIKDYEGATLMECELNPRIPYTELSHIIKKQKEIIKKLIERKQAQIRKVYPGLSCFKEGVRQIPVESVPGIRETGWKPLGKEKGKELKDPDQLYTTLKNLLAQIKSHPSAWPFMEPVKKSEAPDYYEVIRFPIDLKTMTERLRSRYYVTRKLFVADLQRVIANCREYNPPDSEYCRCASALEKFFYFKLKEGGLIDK
Chain of Bromodomain adjacent to zinc finger domain protein 2A (Q9UIF9 whole entry, the tested form may be a part): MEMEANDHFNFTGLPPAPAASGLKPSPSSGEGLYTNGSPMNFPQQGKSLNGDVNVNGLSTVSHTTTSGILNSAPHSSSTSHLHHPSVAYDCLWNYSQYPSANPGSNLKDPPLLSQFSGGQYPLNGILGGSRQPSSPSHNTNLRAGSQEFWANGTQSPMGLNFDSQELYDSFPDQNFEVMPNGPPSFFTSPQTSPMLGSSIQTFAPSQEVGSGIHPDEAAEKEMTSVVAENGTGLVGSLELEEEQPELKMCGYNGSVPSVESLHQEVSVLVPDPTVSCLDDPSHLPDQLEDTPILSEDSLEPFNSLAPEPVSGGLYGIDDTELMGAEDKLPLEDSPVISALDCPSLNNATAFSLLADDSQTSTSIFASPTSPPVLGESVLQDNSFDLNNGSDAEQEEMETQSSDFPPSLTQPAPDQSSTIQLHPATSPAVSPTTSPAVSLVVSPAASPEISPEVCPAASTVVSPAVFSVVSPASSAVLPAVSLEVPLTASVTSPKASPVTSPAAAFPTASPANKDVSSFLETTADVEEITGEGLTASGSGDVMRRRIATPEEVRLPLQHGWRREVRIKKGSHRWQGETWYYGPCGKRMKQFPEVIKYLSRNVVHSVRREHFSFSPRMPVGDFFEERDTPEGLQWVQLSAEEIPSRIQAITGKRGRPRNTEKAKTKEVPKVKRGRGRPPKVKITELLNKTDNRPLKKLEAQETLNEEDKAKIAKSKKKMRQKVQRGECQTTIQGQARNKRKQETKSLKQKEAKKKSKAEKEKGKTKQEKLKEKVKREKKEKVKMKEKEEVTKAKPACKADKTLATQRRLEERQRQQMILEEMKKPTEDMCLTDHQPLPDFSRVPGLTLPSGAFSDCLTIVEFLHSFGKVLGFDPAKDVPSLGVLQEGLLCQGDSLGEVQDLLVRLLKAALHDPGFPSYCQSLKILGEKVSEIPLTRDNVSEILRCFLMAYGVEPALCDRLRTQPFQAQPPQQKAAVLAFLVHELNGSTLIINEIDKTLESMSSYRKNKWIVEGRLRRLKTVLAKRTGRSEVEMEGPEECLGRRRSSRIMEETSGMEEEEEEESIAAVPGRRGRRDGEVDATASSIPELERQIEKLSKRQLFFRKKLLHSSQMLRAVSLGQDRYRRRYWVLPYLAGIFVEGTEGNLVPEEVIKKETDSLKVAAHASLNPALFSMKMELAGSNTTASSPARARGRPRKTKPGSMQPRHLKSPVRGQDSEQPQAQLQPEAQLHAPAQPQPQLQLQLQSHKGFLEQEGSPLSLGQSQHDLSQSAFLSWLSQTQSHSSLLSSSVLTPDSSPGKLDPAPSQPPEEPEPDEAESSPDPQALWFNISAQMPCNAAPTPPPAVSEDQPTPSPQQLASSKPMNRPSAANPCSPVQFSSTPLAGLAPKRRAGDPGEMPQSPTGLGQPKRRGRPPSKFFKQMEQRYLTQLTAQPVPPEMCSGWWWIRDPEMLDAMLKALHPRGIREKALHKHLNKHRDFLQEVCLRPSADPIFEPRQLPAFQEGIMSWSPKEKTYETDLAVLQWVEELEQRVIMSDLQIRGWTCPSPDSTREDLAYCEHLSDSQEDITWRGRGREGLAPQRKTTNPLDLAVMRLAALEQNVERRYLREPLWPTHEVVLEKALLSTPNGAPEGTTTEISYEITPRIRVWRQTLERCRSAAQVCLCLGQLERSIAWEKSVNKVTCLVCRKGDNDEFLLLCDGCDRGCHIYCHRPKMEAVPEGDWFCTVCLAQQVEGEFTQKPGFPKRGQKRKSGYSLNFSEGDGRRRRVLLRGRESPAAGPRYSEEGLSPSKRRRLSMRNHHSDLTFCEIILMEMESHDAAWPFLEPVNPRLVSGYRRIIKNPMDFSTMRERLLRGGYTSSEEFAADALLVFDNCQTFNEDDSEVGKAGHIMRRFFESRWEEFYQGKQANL

Turning to `Cc1cncc(-c2cnc(N[C@@H]3CCNC[C@H]3OCC3CCS(=O)(=O)CC3)c3[nH]c(=O)c(C)cc23)c1`, the IC50 in [1] was 5.01 µM; in data set [3] it was above 50.1 µM; in data set [4], above 50.1 µM; in data set [6], 15.8 µM; in data set [7], above 50.1 µM; in [8], 15.8 µM. This compound registered a chromatographic logD in data set [2] of 1.6. In data set [5], this compound had a kinetic solubility at 1 h of 179 µM (≈ 91.6 µg/mL). Moreover, the Papp at 3 h in data set [9] is below 0.3 ×10⁻⁶ cm/s.
As to `Cc1cncc(-c2cnc(N[C@@H]3CCNC[C@H]3OCC3CCCCC3)c3[nH]c(=O)c(C)cc23)c1`, the Kd in data set [10] is 15.8 µM; in [11], above 100 µM; in data set [12], above 100 µM; in [13], 3.16 µM; in [14] it was 31.6 µM; in data set [15], above 100 µM. Also, the Kd in data set [16] was above 100 µM; in data set [17], 2 µM; in [18] it was above 100 µM. In [2], this compound registered a chromatographic logD of 4. In data set [5], the solubility (kinetic) at 1 h is 170 µM (≈ 78.5 µg/mL). Also, the Papp at 3 h in [9] worked out at 13.8 ×10⁻⁶ cm/s.
Turning to `Cc1cncc(-c2ccc(N[C@@H]3CCNC[C@H]3OCC3CCS(=O)(=O)CC3)c3[nH]c(=O)c(C)cc23)c1`, the Kd in data set [10] is 1.26 µM; in [19], 3.16 µM; in data set [11], 2.51 µM; in data set [12], above 100 µM; in [13], 0.631 µM; in [14] it was 1.58 µM. The Kd in data set [20] is above 100 µM; in data set [21] it was above 100 µM; in [15], 3.98 µM; in data set [22], 2 µM; in data set [16] it was above 100 µM; in [17], 1 µM. In data set [18], this compound had a Kd of 25.1 µM.

What is called IC50 is the point on the concentration scale where inhibition reaches its midpoint. The chromatographic logD is lipophilicity estimated from chromatographic retention. A lower chromatographic logD goes with a more hydrophilic compound. For orientation: solubility (kinetic) means solubility judged after dilution from a stock solution rather than from solid. As usually defined, the Kd is the free concentration of one partner at which half of the binding sites on the other are occupied at equilibrium, for simple one-to-one binding. A lower Kd goes with higher affinity.

These data come from ChEMBL document CHEMBL3588744, “Structure-Based Optimization of Naphthyridones into Potent ATAD2 Bromodomain Inhibitors” (J Med Chem, 2015).
